Tested on: 817829-284-R-J1-PDC complex spheroids, viability
Assay: Anticancer human tumor 817829-284-R-J1-PDC patient-derived colon adenocarcinoma cell line growth inhibition [GQUAD]
Details: for IC50: curve of first compound; for viability, T/C: stronger effect = lower value; active = viability on the fitted dose curve at most 10% of control; inactive = the rest
From the text: DNA G-quadruplex Stabilizer Agents in Combinations in Complex Spheroids
A high-throughput screen of multi-cell type tumor spheroids was designed to identify active combinations of DNA G-quadruplex stabilizer agents and targeted small molecules. Complex spheroids include a stromal component modeled by human endothelial cells (HUVEC) and fibroblasts modeled by human mesenchymal stem cells (MSCs). The concentration ranges selected for each drug and investigational agent were based upon clinically achievable concentrations if the clinical Cmax of the agent was known.
Compounds. The drugs and investigational agents: pidnarulex (CX-5461; NSC782164), APTO-253 (NSC789042), BRACO-19 (NSC847499), peposertib (NSC802822), ceralasertib (NSC780249), elimusertib (NSC800525), camonsertib (NSC841442), AZD-1390 (NSC803789), olaparib (NSC753686), talazoparib (NSC767125), ART-558 (NSC835418), sotorasib (NSC818433), MRTX-1133 (NSC836407), SN-38 (NSC673596), topotecan (NSC609699), etoposide (NSC141540), doxorubicin (NSC123127), gemcitabine (NSC613327), 5-fluorouracil (NSC19893), paclitaxel (NSC125973), vemurafenib (NSC761431), panobinostat (NSC761190), R-306465 (JNJ-16241199; NSC773264), adavosertib (NSC754352), TP-3654 (NSC805149), carboplatin (NSC241240), KSQ-4279 (NSC840948), and staurosporine (NSC755774) were obtained from the National Cancer Institute (NCI) Developmental Therapeutics Program Chemical Repository (34). The FDA-approved anticancer drug set is available from the NCI Developmental Therapeutics Program. […] The stock solutions were prepared in dimethyl sulfoxide (DMSO, Sigma-Aldrich, St. Louis, MO, cat. D2650) at 800-fold the tested concentration and stored at -70 degrees C prior to their use. All drugs and investigational agents were tested over a range starting from a high concentration at or near the clinical Cmax and decreasing in half-log increments. If the clinical Cmax for an agent had not been determined, the highest concentration tested was 10 microM.
2.3 Cell Culture. All cells were maintained in an incubator at 37 degrees C and 5% CO2 with 95% humidity. The PDC lines were cultured according to standard operating procedures established by the NCI PDMR. All PDCs were thawed and cultured in Matrigel-coated flasks prepared with a working solution of 1X Ham's F-12 nutrient mix, without supplementation (Invitrogen, cat. 11765054), 100 U/mL penicillin-streptomycin (Invitrogen, cat. 15140122), and 2.5% Matrigel (Corning Inc., cat. 354248) for the first three passages. The 857933-349-R-J2-PDC line was cultured in 6C/Colon 1B media, which includes advanced DMEM/F-12 (Thermo Fisher Scientific, cat. 12634028), 10 mM HEPES (Thermo Fisher Scientific, cat. 15630080), 1X GlutaMAX supplement (Thermo Fisher Scientific, cat. 35050061), 0.1 mg/mL primocin (InvivoGen, cat. ant-pm-2), 10% defined fetal bovine serum, heat inactivated (HyClone Laboratories Inc., cat. SH30070.03HI), 50% L-WRN conditioned media (ATCC, cat. CRL-3276), 1.25 mM N-Acetyl-L-cysteine (Sigma-Aldrich, cat. A9165), 10 mM nicotinamide (Sigma-Aldrich, cat. N0636), 1X B-27 supplement (Thermo Fisher Scientific, cat. 17504044), 1X N-2 supplement (Thermo Fisher Scientific, cat. 17502048), 10 microM Y-27632 dihydrochloride (Tocris Bioscience, cat. 1254), and 50 ng/mL human EGF recombinant protein (Thermo Fisher Scientific, cat. PHG0311). The 485176-168-R4-J1-PDC line was cultured in Panc media, which includes all 6C/Colon 1B media components plus 100 ng/mL human FGF-10 (Thermo Fisher Scientific, cat. 100-26), 500 nM SB-431542 (Selleckchem, cat. S1067), and gastrin (Tocris, cat. 3006).
[…]

[1] = second compound 0.0316 µM, first compound 0.0316 µM
[2] = second compound 0.0316 µM, first compound 0.316 µM
[3] = second compound 0.1 µM, first compound 0.0316 µM
[4] = second compound 0.1 µM, first compound 0.316 µM
[5] = second compound 0.316 µM, first compound 0.0316 µM
[6] = second compound 0.316 µM, first compound 0.316 µM
[7] = second compound 1 µM, first compound 0.0316 µM
[8] = second compound 1 µM, first compound 0.316 µM
[9] = second compound 3.16 µM, first compound 0.0316 µM
[10] = second compound 3.16 µM, first compound 0.316 µM
[11] = second compound 10 µM, first compound 0.0316 µM
[12] = second compound 10 µM, first compound 0.316 µM
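Also: spheroids exposed to agents for 7 days before readout.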
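For viability, T/C in this document: percent viability relative to DMSO vehicle control taken as 100%.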

CCc1c2c(nc3ccc(O)cc13)-c1cc3c(c(=O)n1C2)COC(=O)[C@]3(O)CC + CN(C)c1ccc(Nc2c3ccc(NC(=O)CCN4CCCC4)cc3nc3cc(NC(=O)CCN4CCCC4)ccc23)cc1
2.78 nM: IC50 (second compound 3.16 µM)
2.02 nM: IC50 (second compound 10 µM)
1.19 nM: IC50 (second compound 0.0316 µM)
1.44 nM: IC50 (second compound 0.1 µM)
inactive: viability, T/C (second compound 0.0316 µM, first compound 0.000999 µM) 50.9% | viability, T/C (second compound 0.0316 µM, first compound 0.00316 µM) 44.4% | viability, T/C (second compound 0.0316 µM, first compound 0.00999 µM) 32.1% | viability, T/C [1] 21.4% | viability, T/C (second compound 0.0316 µM, first compound 0.0999 µM) 10.8% | viability, T/C (second compound 0.1 µM, first compound 0.000999 µM) 54.2% | viability, T/C (second compound 0.1 µM, first compound 0.00316 µM) 40.1% | viability, T/C (second compound 0.1 µM, first compound 0.00999 µM) 34.6% | viability, T/C [3] 19.8% | viability, T/C (second compound 0.1 µM, first compound 0.0999 µM) 10.2% | viability, T/C (second compound 0.316 µM, first compound 0.000999 µM) 53.4% | viability, T/C (second compound 0.316 µM, first compound 0.00316 µM) 48.3% | viability, T/C (second compound 0.316 µM, first compound 0.00999 µM) 36.7% | viability, T/C [5] 19.2% | viability, T/C (second compound 1 µM, first compound 0.000999 µM) 61.1% | viability, T/C (second compound 1 µM, first compound 0.00316 µM) 44.1% | viability, T/C (second compound 1 µM, first compound 0.00999 µM) 32.5% | viability, T/C [7] 21.3% | viability, T/C (second compound 1 µM, first compound 0.0999 µM) 11.2% | viability, T/C (second compound 3.16 µM, first compound 0.000999 µM) 66.4% | viability, T/C (second compound 3.16 µM, first compound 0.00316 µM) 45.1% | viability, T/C (second compound 3.16 µM, first compound 0.00999 µM) 35% | viability, T/C [9] 23.7% | viability, T/C (second compound 3.16 µM, first compound 0.0999 µM) 12.2% | viability, T/C (second compound 10 µM, first compound 0.000999 µM) 60.8% | viability, T/C (second compound 10 µM, first compound 0.00316 µM) 42.9% | viability, T/C (second compound 10 µM, first compound 0.00999 µM) 28.7% | viability, T/C [11] 20.6% | viability, T/C (second compound 10 µM, first compound 0.0999 µM) 11.4%
active: viability, T/C [2] 6.33% | viability, T/C [4] 4.96% | viability, T/C (second compound 0.316 µM, first compound 0.0999 µM) 10.4% | viability, T/C [6] 5.53% | viability, T/C [8] 5.92% | viability, T/C [10] 6.09% | viability, T/C [12] 6.76%
2.22 nM: IC50 (second compound 1 µM)
2.21 nM: IC50 (second compound 0.316 µM)

C#Cc1c(F)ccc2cc(O)cc(-c3ncc4c(N5CC6CCC(C5)N6)nc(OCC56CCCN5CC(F)C6)nc4c3F)c12 (centres undefined) + Cc1[nH]c2ccc(F)cc2c1-c1nc2c3cccnc3c3ncccc3c2[nH]1
active: viability, T/C (second compound 1 µM, first compound 10 µM) 4.87% | viability, T/C [9] 3.89% | viability, T/C (second compound 3.16 µM, first compound 0.1 µM) 4.3% | viability, T/C [10] 3.9% | viability, T/C (second compound 3.16 µM, first compound 1 µM) 3.3% | viability, T/C (second compound 3.16 µM, first compound 3.16 µM) 1.62% | viability, T/C (second compound 3.16 µM, first compound 10 µM) 0.11% | viability, T/C [11] 3% | viability, T/C (second compound 10 µM, first compound 0.1 µM) 12.8% | viability, T/C [12] 3.04% | viability, T/C (second compound 10 µM, first compound 1 µM) 2.02% | viability, T/C (second compound 10 µM, first compound 3.16 µM) 2.19% | viability, T/C (second compound 10 µM, first compound 10 µM) 0.17%
< 31.6 nM: IC50 (second compound 3.16 µM) | IC50 (second compound 10 µM)
inactive: viability, T/C [1] 96.1% | viability, T/C (second compound 0.0316 µM, first compound 0.1 µM) 95% | viability, T/C [2] 96.2% | viability, T/C (second compound 0.0316 µM, first compound 1 µM) 90.4% | viability, T/C (second compound 0.0316 µM, first compound 3.16 µM) 98% | viability, T/C (second compound 0.0316 µM, first compound 10 µM) 118% | viability, T/C [3] 97.6% | viability, T/C (second compound 0.1 µM, first compound 0.1 µM) 108% | viability, T/C [4] 88.2% | viability, T/C (second compound 0.1 µM, first compound 1 µM) 102% | viability, T/C (second compound 0.1 µM, first compound 3.16 µM) 91.1% | viability, T/C (second compound 0.1 µM, first compound 10 µM) 108% | viability, T/C [5] 91% | viability, T/C (second compound 0.316 µM, first compound 0.1 µM) 96.1% | viability, T/C [6] 99.7% | viability, T/C (second compound 0.316 µM, first compound 1 µM) 86.6% | viability, T/C (second compound 0.316 µM, first compound 3.16 µM) 98.8% | viability, T/C (second compound 0.316 µM, first compound 10 µM) 81.1% | viability, T/C [7] 102% | viability, T/C (second compound 1 µM, first compound 0.1 µM) 90.4% | viability, T/C [8] 103% | viability, T/C (second compound 1 µM, first compound 1 µM) 93% | viability, T/C (second compound 1 µM, first compound 3.16 µM) 94.5%
> 10000 nM: IC50 (second compound 0.0316 µM) | IC50 (second compound 0.1 µM) | IC50 (second compound 0.316 µM)
5600 nM: IC50 (second compound 1 µM)
